# Measured values taken from publication PMC12801355, “Peptide Amphiphiles Hitchhike on Endogenous Biomolecules for Enhanced Cancer Imaging and Therapy” (Advanced Materials (Deerfield Beach, Fla.), 2025).
# Where a SMILES comes first, the peptide text is derived from it. The star is where a group is joined. Palmitoyl = CCCCCCCCCCCCCCCC(=O)*
# Key:
# [1] = test system: small intestinal adenomas and colon polyps; assay: Detection of intestinal lesions in APC^min mice; assay type: in vivo, mouse
# Description: (§1) For tumor accumulation studies in subcutaneous (HCT‐116, A375, TRAMP‐C2, MC38, LLC1, RG2, PDX cell lines, wild type or SR‐B1 ‐/‐ TRAMP‐C2, and wild type or LDL‐R ‐/‐ HeLa), intradermal (A375), or fat pad (4T1 and MCF‐7) tumors, cells were implanted as described above. When the tumors reached a size around ≈0.3–1 cm, mice were injected intravenously with 100 µL of ICG conjugated PAs (in PBS, 0.5 mM) or free ICG (in PBS, 0.5 mM). After probe injections, mice were imaged using the IVIS Spectrum (PerkinElmer) with excitation and emission wavelengths of 745 and 820 nm, respectively, at the specified time points. Living Image (PerkinElmer) software was used for all analyses. For MMTV mice experiments, mice were injected intravenously weekly with SA‐E (100 µL PBS, 0.5 mM) between 71 and 85 days of age and imaged 2 days later in the IVIS. […] SA‐E was injected intravenously (100 µL PBS, 0.5 mM), 2 days later the intestinal tissue was harvested, washed, and analyzed in the IVIS for ICG.
# [2] = Toxicity in mice; assay type: in vivo, mouse; settings: wild type mice, 200 nmol IV, 5 mice
# Description: Wild type mice were injected intravenously with ICG conjugated SA‐E at 4 times the dose used previously for imaging (100 µL, 2 mM). 1 day later, blood was removed via cardiac puncture, placed into an EDTA tube, and then centrifuged at 1500 g for 10 min, then 2500 g for 10 min to obtain plasma. The plasma was analyzed for Aspartate Aminotransferase activity (AST) (Abcam, AB105135) and creatinine (Crystal Chem, 80350) following the manufacturer's protocol. For complete blood counts, whole blood (10 µL) was mixed with 2 mM EDTA (10 µL) and analyzed using the HemaVet 950S (Drew Scientific).
# [3] = PA fluorescence in liver homogenates; assay type: in vitro ADME; settings: ICG conjugated, 0.1 to 10 µM spiked into mouse liver homogenate, IVIS
# Description: Liver samples (6.2 g total weight) collected from healthy BALB/cJ mice were placed in a gentleMACS M Tube containing 2 mL of PBS. The M Tube was fitted with a 600 µm mesh strainer, and homogenization was performed using a gentleMACS Dissociator by running a one‐minute program at 1260 rotations per round (rpr) for five cycles. ICG conjugated SA‐E and SA‐K were then spiked into the liver homogenates in a 96‐well plate at final concentrations of 0, 0.1, 0.5, 2.0, 5.0, and 10 µM. Fluorescence signals from the homogenates were measured using an IVIS (PerkinElmer).
# [4] = test system: RG2 xenografts; assay: Flow cytometry of mCherry expressing RG2 xenografts; assay type: in vivo, mouse; settings: Cy5 SA‐E 50 nmol IV
# Description: RG2‐mCherry cells (100 µL sterile DMEM, 0.5 × 10^7 cells mL^−1) were implanted subcutaneously in nude mice and allowed to grow to 0.5–1 cm. Mice were then injected intravenously with the Cy5 labeled SA‐E (100 µL, 0.5 mM). 2 days later, tumors were extracted, minced, and dissociated using 1 mg mL^−1 solution collagenase/dispase (Roche, 10269638001 and 11097113001) for 45 min at 37 °C. The solution was broken down with pipetting and filtered through a 70 µm filter. The single‐cell solution was suspended in sterile PBS (10 mM, pH 7.4) and then incubated with 1:50 dilution of AlexaFluor 488 Rat Anti‐Mouse CD45 antibody (BD Pharminogen, 567377) for 45 min at room temperature. Finally, the cells were pelleted and, washed and incubated with 5 µM Calcein Blue, AM (Invitrogen, C1429) for 20 min. The cells were then analyzed in BD FACSymphony in the DAPI channel (355 nm laser, 450/50 filter), FITC channel (488 nm laser, 515/30 filter), Cy3 channel (561 nm laser, 586/15 filter), and Cy5 channel (628 nm laser, 670/30 filter). Cells in culture were used to establish size and mCherry intensity. […] Finally, three experimental mice were analyzed in all channels using the gating established from the controls. Gating was performed in FlowJo software.
# [5] = Stability of PA nanostructures in plasma (fluorescence recovery); assay type: in vitro ADME, human
# Description: ICG or Cy5 conjugated PAs were dissolved in PBS (10 mM, pH 7.4) at a concentration of 1 or 100 µM, and 90 µL aliquots of these solutions were added to a 96 well plate (4 wells for each PA). Then, 10 µL of pooled human plasma was added to each well, and fluorescence spectra of ICG or Cy5 were recorded using a microplate reader (TECAN Spark 20 M) at different time points.
# [6] = test system: xenograft, syngeneic, transgenic and PDX tumor models; assay: Tumor accumulation in a broad range of tumor models; assay type: in vivo, mouse; settings: 2 days after 50 nmol IV
# Description: as §1
# [7] = Blood circulation in mice; assay type: in vivo, mouse; settings: wild type mice, 50 nmol IV
# Description: For blood circulation experiments, Balb/c mice were injected with 100 µL of ICG conjugated PAs or No‐SA, or free ICG (0.5 mM). Then, blood was drawn via the saphenous vein or retro‐orbitally at different time points (immediately after injection to 1 day). […] Blood from wild type mice was collected to prepare calibration curves for each probe. To each 18 µL aliquot of blood, 2 µL of probe stock solution (0.5 mM) was added and incubated at 37 °C for 1 h. The spiked samples were then serially diluted in blood between 50 and 0.1 µM. For fluorescence measurement, 2 µL of each diluted sample was further diluted into 98 µL of PBS, and ICG fluorescence was measured using a TECAN plate reader.
structure (smiles),measurement,setting,value
CCCCCCCCCCCCCCCC(=O)NCC(=O)NCC(=O)NCC(=O)N[C@@H](Cc1c[nH]cn1)C(=O)N[C@@H](C)C(=O)N[C@@H](C)C(=O)N[C@@H](CC(N)=O)C(=O)NCC(=O)N[C@@H](CCC(=O)O)C(=O)N[C@@H](CCC(=O)O)C(=O)N[C@@H](CS)C(=O)N[C@@H](CCC(=O)O)C(=O)O [SA‐E] (Palmitoyl-GGGHAANGEECE-OH),colon polyps detected,[1]; 3 APC^min mice,4/4
same,small intestinal adenomas detected,[1]; 3 APC^min mice,71/71
same,"Colon, SA-E Negative lesions","[1]; mouse 1, of 2 lesions",0
same,"Colon, SA-E Positive lesions","[1]; mouse 1, of 2 lesions",2
same,"Small Intestine, SA-E Negative lesions","[1]; mouse 1, of 15 lesions",0
same,"Small Intestine, SA-E Positive lesions","[1]; mouse 1, of 15 lesions",15
same,"Colon, SA-E Negative lesions","[1]; mouse 2, of 1 lesion",0
same,"Colon, SA-E Positive lesions","[1]; mouse 2, of 1 lesion",1
same,"Small Intestine, SA-E Negative lesions","[1]; mouse 2, of 22 lesions",0
same,"Small Intestine, SA-E Positive lesions","[1]; mouse 2, of 22 lesions",22
same,"Colon, SA-E Negative lesions","[1]; mouse 3, of 1 lesion",0
same,"Colon, SA-E Positive lesions","[1]; mouse 3, of 1 lesion",1
same,"Small Intestine, SA-E Negative lesions","[1]; mouse 3, of 34 lesions",0
same,"Small Intestine, SA-E Positive lesions","[1]; mouse 3, of 34 lesions",34
same,Aspartate transferase (AST) versus control,[2]; 1 day,no difference
same,Creatinine versus control,[2]; 1 day,no difference
same,complete blood counts (CBC) versus control,[2]; blood 1 day after injection,no difference
same,"fluorescence in liver homogenates, SA‐E versus SA‐K (disassembly)",[3],almost identical fluorescence intensity
same,CD45 and mCherry negative cells (tumor stroma) containing Cy5,[4]; 2 days,35%–40
same,CD45 positive only (white blood cells) containing Cy5,[4]; 2 days,35%–40
same,enrichment in cancer cells compared to other cells in the tumor,[4]; 2 days,approximately two‐fold
same,mCherry expressing cancer cells containing Cy5,"[4]; tumors harvested 2 days later, three mice",≈ 70%
same,increase in Cy5 fluorescence in plasma relative to SA‐K,"[5]; Cy5 conjugated PAs 100 µM, 10% human plasma, 1 h",≈ 10 fold
same,increase in ICG fluorescence in plasma relative to SA‐K (micelle disassembly),"[5]; ICG conjugated PAs 1 or 100 µM in PBS pH 7.4 with 10% pooled human plasma, over 2 h, plate reader, larger and more rapid than SA‐K",approximately three‐fold
same,tumor accumulation across models,[6],highly specific tumor accumulation in all 13 tumor models
same,AUC of blood circulation plot relative to SA‐K,[7],2.1 fold
